Experiments:
Assay in all cases: relative viability (nuclei count vs DMSO), 5 days (fraction); higher = more cells survive
[1] = compound: CC1=CC=C(C=C1)C(=O)CN2C3=C(CCCC3)SC2=N [Pifithrin_alpha] + CC(C)C[C@H](NC(=O)[C@H](Cc1ccccc1)NC(=O)c1cnccn1)B(O)O [Bortezomib] (partner 0.002 µM)
In short: (§1)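 For relative viability, nuclei counts in treated wells were divided by those in vehicle wells. Lung cancer cell lines had been pin-tool dosed in 1536-well plates the day after seeding and cultured for 5 days, then fixed and stained in one step (final 0.05% Triton X-100, 1% formaldehyde, 1 ug/ml Hoechst) and imaged at 4×. Doses were one drug alone or a fixed anchor-drug dose plus five library-drug doses (not always all listed) in √10 steps, and values are duplicate-plate medians.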

[2] = compound: CC1=CC=C(C=C1)C(=O)CN2C3=C(CCCC3)SC2=N [Pifithrin_alpha] + C[C@]1(O)C[C@@H](c2nc(-c3ccc4ccc(-c5ccccc5)nc4c3)c3c(N)nccn32)C1 [Linsitinib] (partner 1 µM)
In short: as §1

Bemcentinib + Luminespib = compound: Nc1nc(Nc2ccc3c(c2)CC[C@@H](N2CCCC2)CC3)nn1-c1cc2c(nn1)-c1ccccc1CCC2 [Bemcentinib] + CCNC(=O)c1noc(-c2cc(C(C)C)c(O)cc2O)c1-c1ccc(CN2CCOCC2)cc1 [Luminespib] (partner 0.01 µM)
In short: as §1

Bemcentinib + AZD7762 = compound: Nc1nc(Nc2ccc3c(c2)CC[C@@H](N2CCCC2)CC3)nn1-c1cc2c(nn1)-c1ccccc1CCC2 [Bemcentinib] + NC(=O)Nc1cc(-c2cccc(F)c2)sc1C(=O)N[C@H]1CCCNC1 [AZD7762] (partner 0.2 µM)
In short: as §1

Question: With NCI-H650 as the cell line, how does the relative viability ([1]; first compound 3.162 µM) read?
Answer: The relative viability was 1.

Question: And the relative viability ([1]; first compound 10 µM)?
Answer: Its relative viability is 0.804.

Question: And the relative viability ([1]; first compound 31.62 µM)?
Answer: The relative viability was 0.51.

Question: And the relative viability ([1]; first compound 100 µM)?
Answer: Its relative viability is 0.725.

Question: What about the relative viability ([2]; first compound 3.162 µM) of the same cell line?
Answer: The relative viability was 1.

Question: What about the relative viability ([2]; first compound 10 µM) of the same cell line?
Answer: Its relative viability is 0.778.

Question: What about the relative viability ([2]; first compound 31.62 µM) of the same cell line?
Answer: Its relative viability is 0.524.

Question: And the relative viability ([2]; first compound 100 µM)?
Answer: Its relative viability is 0.807.

Question: What about the relative viability (Bemcentinib + Luminespib; first compound 0.04 µM) of the same cell line?
Answer: The relative viability was 0.8.

Question: What about the relative viability (Bemcentinib + Luminespib; first compound 0.1265 µM) of the same cell line?
Answer: The relative viability was 0.963.

Question: What about the relative viability (Bemcentinib + Luminespib; first compound 0.4 µM) of the same cell line?
Answer: The relative viability was 0.922.

Question: What about the relative viability (Bemcentinib + Luminespib; first compound 1.265 µM) of the same cell line?
Answer: The relative viability was 0.749.

Question: What about the relative viability (Bemcentinib + Luminespib; first compound 4 µM) of the same cell line?
Answer: Its relative viability is 0.729.

Question: What about the relative viability (Bemcentinib + AZD7762; first compound 0.04 µM) of the same cell line?
Answer: The relative viability was 0.956.

Question: What about the relative viability (Bemcentinib + AZD7762; first compound 0.1265 µM) of the same cell line?
Answer: The relative viability was 0.964.

Question: And the relative viability (Bemcentinib + AZD7762; first compound 0.4 µM)?
Answer: Its relative viability is 1.15.

Question: And the relative viability (Bemcentinib + AZD7762; first compound 1.265 µM)?
Answer: The relative viability was 0.886.

Question: And the relative viability (Bemcentinib + AZD7762; first compound 4 µM)?
Answer: The relative viability was 1.17.

Source: the supplement of paper PMC10307832
